This note sets out measurements from patent US20250376461A1, “INDAZOLE DERIVATIVES FOR TREATING TRPM3-MEDIATED DISORDERS” (Katholieke Universiteit Leuven, priority 2022, published 2025).

The target in the experiment is T1, mouse TRPM3α2 (mTRPM3) ion channel (Mus musculus, UniProt J9SQF3).
T1 construct: expressed in transfected cells; host or cells: flip-in HEK293
T1 sequence (J9SQF3 1-1709 isoform J9SQF3-12): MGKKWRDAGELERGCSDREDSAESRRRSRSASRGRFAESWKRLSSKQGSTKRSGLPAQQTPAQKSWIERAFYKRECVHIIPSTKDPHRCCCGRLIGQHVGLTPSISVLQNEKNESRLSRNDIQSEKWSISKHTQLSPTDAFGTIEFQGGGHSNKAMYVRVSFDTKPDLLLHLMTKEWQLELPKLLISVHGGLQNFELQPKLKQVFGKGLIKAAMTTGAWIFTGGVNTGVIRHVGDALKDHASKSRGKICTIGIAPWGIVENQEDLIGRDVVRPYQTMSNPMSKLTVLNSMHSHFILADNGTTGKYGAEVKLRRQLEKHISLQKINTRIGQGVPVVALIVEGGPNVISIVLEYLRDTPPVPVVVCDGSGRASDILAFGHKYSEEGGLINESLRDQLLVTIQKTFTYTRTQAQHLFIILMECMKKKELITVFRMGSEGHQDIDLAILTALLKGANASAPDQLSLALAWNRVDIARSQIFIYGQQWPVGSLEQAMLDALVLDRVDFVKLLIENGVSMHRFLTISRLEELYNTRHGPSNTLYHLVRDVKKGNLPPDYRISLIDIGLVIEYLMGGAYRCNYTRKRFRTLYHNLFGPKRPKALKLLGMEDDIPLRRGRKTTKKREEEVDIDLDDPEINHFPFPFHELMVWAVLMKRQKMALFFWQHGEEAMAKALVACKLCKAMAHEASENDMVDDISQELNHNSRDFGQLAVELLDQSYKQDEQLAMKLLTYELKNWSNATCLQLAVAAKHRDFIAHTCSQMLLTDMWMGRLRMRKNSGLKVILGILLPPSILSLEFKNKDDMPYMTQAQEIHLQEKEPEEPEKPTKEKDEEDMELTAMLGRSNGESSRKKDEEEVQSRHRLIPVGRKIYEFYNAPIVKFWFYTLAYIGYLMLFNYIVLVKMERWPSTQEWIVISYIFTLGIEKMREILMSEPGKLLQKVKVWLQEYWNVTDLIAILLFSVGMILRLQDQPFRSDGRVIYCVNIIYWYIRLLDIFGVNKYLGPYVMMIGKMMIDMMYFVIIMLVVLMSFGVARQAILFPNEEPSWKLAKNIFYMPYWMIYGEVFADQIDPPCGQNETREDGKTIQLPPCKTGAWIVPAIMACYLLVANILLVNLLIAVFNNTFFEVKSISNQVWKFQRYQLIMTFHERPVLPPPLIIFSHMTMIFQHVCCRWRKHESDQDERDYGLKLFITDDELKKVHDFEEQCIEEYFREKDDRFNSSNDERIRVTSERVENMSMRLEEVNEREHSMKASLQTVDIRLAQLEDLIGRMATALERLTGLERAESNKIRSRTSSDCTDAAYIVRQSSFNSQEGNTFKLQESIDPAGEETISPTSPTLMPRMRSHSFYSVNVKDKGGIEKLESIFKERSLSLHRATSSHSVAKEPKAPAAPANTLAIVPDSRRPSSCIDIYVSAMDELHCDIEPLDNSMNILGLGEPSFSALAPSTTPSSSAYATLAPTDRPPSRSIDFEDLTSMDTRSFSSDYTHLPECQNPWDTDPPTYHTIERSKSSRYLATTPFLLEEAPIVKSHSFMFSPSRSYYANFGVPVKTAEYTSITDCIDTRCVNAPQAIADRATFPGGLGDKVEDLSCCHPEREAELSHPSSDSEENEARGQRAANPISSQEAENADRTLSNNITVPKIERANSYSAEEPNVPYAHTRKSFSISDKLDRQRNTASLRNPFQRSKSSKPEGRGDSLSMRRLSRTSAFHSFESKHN
The experiment is described as follows: TRPM3 ion channel driven Ca2+ uptake, Fluo-4 AM assay, mTRPM3alpha2 overexpressing flip-in HEK293 cells stimulated with pregnenolone sulfate (50 μM). It is filed as cell-based. Particulars: mTRPM3 overexpressing HEK293 cells stimulated with pregnenolone sulfate (50 μM), activity ranges A, B, C. The gist of the method:
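Ca2+ influx via mouse TRPM3α2 was opened with pregnenolone sulfate (50 μM) and tracked by Fluo-4 AM fluorescence at 485/535 nm, read directly after adding about 2000 stably transfected HEK293 cells per well to compound. IC50 values come from percent inhibition scaled to vehicle and positive-control inhibitor signals.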
By IC50 is commonly meant the midpoint of a concentration-inhibition curve. Turning to `Cn1nccc1COc1ccc2nn(C)c(C(=O)O)c2c1` [Cpd 123, 2-methyl-5-[(1-methyl-1H-pyrazol-5-yl)methoxy]-2H-indazole-3-carboxylic acid], the IC50 was above 20000 nM.

As to `Cc1ncsc1COc1ccc2nn(C)c(C(=O)NC3CCOCC3)c2c1` [Cpd 115, 2-methyl-5-[(4-methyl-1,3-thiazol-5-yl)methoxy]-N-(oxan-4-yl)-2H-indazole-3-carboxamide], the IC50 lay in the range of 1000 to 20000 nM.

In turn, `Cn1nc2ccc(OCc3ccccn3)cc2c1C(=O)NC(C)(CO)CC(F)F` (single isomer, unassigned) [Cpd 201 - En2, N-(4,4-difluoro-1-hydroxy-2-methylbutan-2-yl)-2-methyl-5-[(pyridin-2-yl)methoxy]-2H-indazole-3-carboxamide] gave an IC50 below 1000 nM.

`Cc1ncsc1COc1ccc2nn(C)c(C(=O)NC3(CCO)CCC3)c2c1` [Cpd 048, N-[1-(2-hydroxyethyl)cyclobutyl]-2-methyl-5-[(4-methyl-1,3-thiazol-5-yl)methoxy]-2H-indazole-3-carboxamide] displayed an IC50 of 1000 to 20000 nM.

With `Cn1nc2ccc(OCc3ccccc3)cc2c1C(=O)NCC1CCC(=O)N1` (centres unmarked) [Cpd 066, 5-(benzyloxy)-2-methyl-N-[(5-oxopyrrolidin-2-yl)methyl]-2H-indazole-3-carboxamide], the IC50 is above 20000 nM.

With `Cc1ncsc1COc1ccc2nn(C)c(C(=O)NC(C)(CO)C(=O)N(C)C)c2c1` (single isomer, unassigned) [Cpd 184 - En2], the IC50 fell in the range of 1000 to 20000 nM.

Turning to `Cn1nc2ccc(OCC3CCC3)cc2c1C(=O)NC(C)(CO)CO` [Cpd 129, 5-(cyclobutylmethoxy)-N-(1,3-dihydroxy-2-methylpropan-2-yl)-2-methyl-2H-indazole-3-carboxamide], the IC50 is 1000 to 20000 nM.

Turning to `Cn1nc2ccc(OCc3ccccn3)cc2c1C(=O)NC(CO)Cc1ncccn1` (single isomer, unassigned) [Cpd 243 - En2], the IC50 is above 20000 nM.

`Cn1nccc1COc1ccc2nn(C)c(C(=O)NC(C)(CO)CO)c2c1` [Cpd 009, N-(1,3-dihydroxy-2-methylpropan-2-yl)-2-methyl-5-[(1-methyl-1H-pyrazol-5-yl)methoxy]-2H-indazole-3-carboxamide] had an IC50 of 1000 to 20000 nM.

The compound `Cn1nc2ccc(OCc3ccccn3)cc2c1C(=O)NC1(CO)CCC1` [Cpd 086, N-[1-(hydroxymethyl)cyclobutyl]-2-methyl-5-[(pyridin-2-yl)methoxy]-2H-indazole-3-carboxamide] returned an IC50 of 1000 to 20000 nM.

As for `Cn1nc2ccc(OCC3CC3)cc2c1C(=O)NC(C)(C)C(N)=O` [Cpd 134, 2-{[5-(cyclopropylmethoxy)-2-methyl-2H-indazol-3-yl]formamido}-2-methylpropanamide], the IC50 is 1000 to 20000 nM.

Consider `Cn1nc2ccc(OCC3CC3)cc2c1C(=O)NC1(CO)CCNC1=O` (single isomer, unassigned) [Cpd 161 - En1], for which the IC50 was below 1000 nM.

`C[C@@H](NC(=O)c1c2cc(OCc3ccccc3F)ccc2nn1C)C(N)=O` [Cpd 098, (2R)-2-({5-[(2-fluorophenyl)methoxy]-2-methyl-2H-indazol-3-yl}formamido)propanamide] showed a half-inhibitory concentration (IC50) of 1000 to 20000 nM.

For `Cn1nc2ccc(OCc3cccnc3C(F)(F)F)cc2c1C(=O)O` [Cpd 122, 2-methyl-5-((2-(trifluoromethyl)pyridin-3-yl)methoxy)-2H-indazole-3-carboxylic acid], the IC50 lay in the range of 1000 to 20000 nM.

For the compound `Cn1nc2ccc(OCc3ccccn3)cc2c1C(=O)NC1CNCCC1(F)F` (single isomer, unassigned) [Cpd 212 - En1, N-(4,4-difluoropiperidin-3-yl)-2-methyl-5-[(pyridin-2-yl)methoxy]-2H-indazole-3-carboxamide], the IC50 fell in the range of 1000 to 20000 nM.

The compound `Cn1ccc(COc2ccc3nn(C)c(C(=O)NC(C)(CO)C(N)=O)c3c2)n1` (single isomer, unassigned) [Cpd 155 - En2] gave an IC50 of 1000 to 20000 nM.

The compound `Cn1ccc(NC(=O)c2c3cc(OCc4ccnn4C)ccc3nn2C)n1` [Cpd 006, 2-methyl-N-(1-methyl-1H-pyrazol-3-yl)-5-[(1-methyl-1H-pyrazol-5-yl)methoxy]-2H-indazole-3-carboxamide] gave an IC50 above 20000 nM.

On to `Cn1nc2ccc(OCc3ccccn3)cc2c1C(=O)NC1CNCC(F)(F)C1` (single isomer, unassigned) [Cpd 214 - En1], for which the IC50 is above 20000 nM.

With `Cc1ccc(COc2ccc3nn(C)c(C(=O)NC(C)(CO)C(N)=O)c3c2)cn1` (single isomer, unassigned) [Cpd 174 - En1], the IC50 fell in the range of 1000 to 20000 nM.

`Cn1nc2ccc(OCc3ccccn3)cc2c1C(=O)NC1(CO)CCNC1=O` (single isomer, unassigned) [Cpd 253 - En2] registered an IC50 of 1000 to 20000 nM.

Regarding `Cc1ncsc1COc1ccc2nn(C)c(C(=O)NC3(CO)CCC3)c2c1` [Cpd 043, N-[1-(hydroxymethyl)cyclobutyl]-2-methyl-5-[(4-methyl-1,3-thiazol-5-yl)methoxy]-2H-indazole-3-carboxamide], the IC50 lay in the range of 1000 to 20000 nM.

`Cn1nc2ccc(OCc3cccnc3)cc2c1C(=O)NC(C)(CO)C(N)=O` (single isomer, unassigned) [Cpd 190 - En2] showed an IC50 below 1000 nM.

Compound `Cc1ncc(COc2ccc3nn(C)c(C(=O)NC4CCOCC4)c3c2)s1` [Cpd 120, 2-methyl-5-[(2-methyl-1,3-thiazol-5-yl)methoxy]-N-(oxan-4-yl)-2H-indazole-3-carboxamide] returned an IC50 above 20000 nM.

Consider `CN(C)CC(C)(C)CNC(=O)c1c2cc(OCc3ccccn3)ccc2nn1C` [Cpd 207, N-[3-(dimethylamino)-2,2-dimethylpropyl]-2-methyl-5-[(pyridin-2-yl)methoxy]-2H-indazole-3-carboxamide], for which the IC50 was above 20000 nM.

`Cn1nc2ccc(OCc3ccccc3)cc2c1C(=O)N[C@@H]1COC[C@H]1O` (single isomer, unassigned) [Cpd 011 - Dia2] gave an IC50 of 1000 to 20000 nM.

In turn, `Cc1ncsc1COc1ccc2nn(C)c(C(=O)NC(C)(CO)CO)c2c1` [Cpd 021, N-(1,3-dihydroxy-2-methylpropan-2-yl)-2-methyl-5-[(4-methyl-1,3-thiazol-5-yl)methoxy]-2H-indazole-3-carboxamide] gave an IC50 below 1000 nM.

Compound `Cn1nc2ccc(OCC3CCC3)cc2c1C(=O)NC1(CO)CCNC1=O` (single isomer, unassigned) [Cpd 159 - En2] displayed an IC50 below 1000 nM.

`Cn1nc2ccc(OCc3ccccc3F)cc2c1C(=O)NC1(CO)CCNC1=O` (single isomer, unassigned) [Cpd 171 -En1] returned an IC50 below 1000 nM.

Compound `Cc1ccc(COc2ccc3nn(C)c(C(=O)NC(C)(CO)C(N)=O)c3c2)cn1` (single isomer, unassigned) [Cpd 174 - En2] came in with an IC50 below 1000 nM.

`Cn1nc2ccc(OCc3ccccn3)cc2c1C(=O)NC1CNCC(F)(F)C1` (single isomer, unassigned) [Cpd 214 - En2] gave an IC50 of 1000 to 20000 nM.

`Cc1ncsc1COc1ccc2nn(C)c(C(=O)NCc3cccc(O)n3)c2c1` [Cpd 089, N-[(6-hydroxypyridin-2-yl)methyl]-2-methyl-5-[(4-methyl-1,3-thiazol-5-yl)methoxy]-2H-indazole-3-carboxamide] gave an IC50 below 1000 nM.

Consider `Cn1nc2ccc(OCc3ccccn3)cc2c1C(=O)NC(CO)C1CCOCC1` (single isomer, unassigned) [Cpd 241 - En1], for which the IC50 fell in the range of 1000 to 20000 nM.

`Cn1nccc1COc1ccc2nn(C)c(C(=O)NCC3CCC(=O)N3)c2c1` (centres unmarked) [Cpd 069, 2-methyl-5-[(1-methyl-1H-pyrazol-5-yl)methoxy]-N-[(5-oxopyrrolidin-2-yl)methyl]-2H-indazole-3-carboxamide] returned an IC50 above 20000 nM.

Turning to `Cn1nc2ccc(OCC3CC3)cc2c1C(=O)NC1(C(N)=O)CCOC1` (single isomer, unassigned) [Cpd 165 - En1], the IC50 lay in the range of 1000 to 20000 nM.

Take `Cn1nc2ccc(OCc3ccccn3)cc2c1C(=O)NC1(CC(F)F)CCCNC1` (single isomer, unassigned) [Cpd 248 - En2]: the IC50 was in the range of 1000 to 20000 nM.

As for `Cc1ncsc1COc1ccc2nn(C)c(C(=O)NC3CN(C)CC3(F)F)c2c1` (centres unmarked) [Cpd 032, N-(4,4-difluoro-1-methylpyrrolidin-3-yl)-2-methyl-5-[(4-methyl-1,3-thiazol-5-yl)methoxy]-2H-indazole-3-carboxamide], the IC50 was 1000 to 20000 nM.

On to `Cn1nc2ccc(OCc3ccccc3)cc2c1C(=O)NC(C)(CO)CO` [Cpd 017, 5-(benzyloxy)-N-(1,3-dihydroxy-2-methylpropan-2-yl)-2-methyl-2H-indazole-3-carboxamide], for which the IC50 was in the range of 1000 to 20000 nM.

In turn, `Cn1nc2ccc(OCc3ccccc3C(F)F)cc2c1C(=O)NC1(CO)CCNC1=O` (single isomer, unassigned) [Cpd 176 - En2] came in with an IC50 of 1000 to 20000 nM.

In turn, `Cn1nc2ccc(OCc3ccccn3)cc2c1C(=O)NC(CO)C(C(F)(F)F)C(F)(F)F` (single isomer, unassigned) [Cpd 227 - En1] showed an IC50 below 1000 nM.

As for `O=C1NCCn2nc3ccc(OCc4ccccc4F)cc3c21` [Cpd 256, 9-[(2-fluorophenyl)methoxy]-1H,2H,3H,4H-pyrazino[1,2-b]indazol-1-one], the IC50 is above 20000 nM.

`Cn1nc2ccc(OCc3ccccn3)cc2c1C(=O)NC(CO)c1nccn1C1CC1` (single isomer, unassigned) [Cpd 238 - En1]: the IC50 lay within 1000 to 20000 nM.

As for `Cn1nc2ccc(OCc3cccnc3C(F)(F)F)cc2c1C(=O)NC1(CO)CCC1` [Cpd 028, N-[1-(hydroxymethyl)cyclobutyl]-2-methyl-5-{[2-(trifluoromethyl)pyridin-3-yl]methoxy}-2H-indazole-3-carboxamide], the IC50 lay within 1000 to 20000 nM.

Consider `Cc1ccc(COc2ccc3nn(C)c(C(=O)NC4(CO)CCNC4=O)c3c2)cn1` (single isomer, unassigned) [Cpd 169 - En2], for which the IC50 is below 1000 nM.

Regarding `CN1CCC(NC(=O)c2c3cc(OCc4ccccc4)ccc3nn2C)C1` (centres unmarked) [Cpd 092, 5-(benzyloxy)-2-methyl-N-(1-methylpyrrolidin-3-yl)-2H-indazole-3-carboxamide], the IC50 was in the range of 1000 to 20000 nM.
